The text below walks through data of patent US12605411B2, “Phospholipid compositions for delivery of therapeutic compounds” (Aker BioMarine Human Ingredients AS, priority 2022, dated 2026).

For data set [1] the following is noted: cited from earlier work.
For data set [2] the following is noted: cited from earlier work. This is another data set of the same source.
Data set [3] in a line: CoQ10 absorption in plasma after single dose, clinical study. Type of data set: in vivo, human. The procedure: The purpose of the study was to investigate compare the CoQ10 level of absorption in the plasma of a phospholipid krill oil+CoQ10 product to a comparator CoQ10-product (without any krill oil).
Absorption levels of CoQ10 in plasma were measured at time (T)=0, 2, 4, 6 and 8 hours after the single-dose (2 soft gels) intake of the study products. A 7-day minimum washout period between the two doses was specified.
A total of 13 subjects successfully completed the study.

For data set [4] the following is noted: humans, taken orally; cited from earlier work.
Data set [5] can be described thus: Plasma CBD concentration after dosing (FIG. 5). It counts as in vivo.

Molecules are shown by their SMILES. Converted amounts (≈) assume the structure as drawn.

Consider `O=c1c(O)c(-c2ccc(O)c(O)c2)oc2cc(O)ccc12` [Fisetin], for which, in data set [1], the solubility is under 1000 µg/mL and the Solubility ethanol was 5000 µg/mL (≈ 17.5 mM). The Solubility water in data set [1] (water) is 150 µg/mL (≈ 0.524 mM). In addition, the logP in data set [2] is reported as 1.81-2.03.
Take `COC1=C(OC)C(=O)C(C/C=C(\C)CC/C=C(\C)CC/C=C(\C)CC/C=C(\C)CC/C=C(\C)CC/C=C(\C)CC/C=C(\C)CC/C=C(\C)CC/C=C(\C)CCC=C(C)C)=C(C)C1=O` [CoQ10, Coenzyme Q10]: the “absorption of CoQ10 in plasma, change from baseline (in words)” value in data set [3] (0-8 hours after single dose, 13 subjects) was “No significant absorption”. Further, the “Change of plasma CoQ10 from baseline” value in data set [3] (2 hours) is −11.49%; in data set [3] (4 hours) it was −4.53%; in data set [3] (6 hours), 1.71%; in data set [3] (8 hours), 6.15%. Besides, the concentration at 2 h in data set [3] (human, plasma, oral, 2 soft gels, 2 hours after single dose) came to 8780 ng/mL. The same compound registered a concentration at 4 h in data set [3] (human, plasma, oral, 2 soft gels, 4 hours after single dose) of 9570 ng/mL. This compound yielded a concentration at 6 h in data set [3] (human, plasma, oral, 2 soft gels, 6 hours after single dose) of 10100 ng/mL. In addition, the concentration at 8 h in data set [3] (human, plasma, oral, 2 soft gels, 8 hours after single dose) was found to be 10500 ng/mL. The concentration at 0 h in data set [3] (human, plasma, oral, 2 soft gels, Baseline) turned out to be 9920 ng/mL.
In the case of `O=c1c(O)c(-c2ccc(O)c(O)c2)oc2cc(O)cc(O)c12` [Quercetin], the Solubility ethanol in data set [1] was 2000 µg/mL (≈ 6.62 mM). Moreover, in data set [2], the logP is listed as 1.50.
Take `C=C(C)[C@@H]1CCC(C)=C[C@H]1c1c(O)cc(CCCCC)cc1O` [CBD, Cannabidiol]: the bioavailability entry in data set [4] was “around 6%”. Also, the “increase of bioavailability of CBD” value in data set [5] (krill oil compared to MCT, FIG. 5) is 3 fold. In addition, the “absorption of CBD (plasma CBD concentration)” value in data set [5] (krill oil vs medium chain triglyceride (MCT) oil) is reported as “much greater extent”.
